# Laboratory results published in patent US8952024B2, “Herbicidal pyrimidone derivatives” (E I du Pont de Nemours and Company, priority 2009, dated 2015).
# Assays:
# Format in all cases: in vivo
# [1] = test system: barnyardgrass (Echinochloa crus-galli); assay: Test A pre-/postemergence plant response
# Outline: (§1)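 Seeds planted in loam soil/sand blend; test chemicals in non-phytotoxic solvent mixture with surfactant applied as directed soil spray preemergence and, concurrently, postemergence to plants 2–10 cm tall at one- to two-leaf stage. Greenhouse ~10 days; visual injury vs untreated controls, 0 (no effect) to 100 (complete control).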
# corn (Zea mays) = assay: Test A pre-/postemergence plant response
# Outline: as §1
# [2] = test system: giant foxtail (Setaria faberii); assay: Test A pre-/postemergence plant response
# Outline: as §1
# [3] = test system: large crabgrass (Digitaria sanguinalis); assay: Test A pre-/postemergence plant response
# Outline: as §1
# [4] = test system: morningglory (Ipomoea spp.); assay: Test A pre-/postemergence plant response
# Outline: as §1
# [5] = test system: pigweed (Amaranthus retroflexus); assay: Test A pre-/postemergence plant response
# Outline: as §1
# [6] = test system: velvetleaf (Abutilon theophrasti); assay: Test A pre-/postemergence plant response
# Outline: as §1
# [7] = test system: wheat (Triticum aestivum); assay: Test A pre-/postemergence plant response
# Outline: as §1
# [8] = test system: barnyardgrass (Echinochloa crus-galli); assay: Test B flooded paddy test; conditions: for Plant response rating, Flood, Barnyardgrass: 250 g ai/ha, flooded paddy test, visual rating on 0 to 100 scale (0 no effect, 100 complete control) after 13 to 15 days; for Plant response rating, Barnyardgrass: Flood (flooded paddy test), 13 to 15 days; for Barnyardgrass plant response rating: Flood, 31 g ai/ha, scale 0 to 100 (0 no effect, 100 complete control)
# Outline: (§2)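 Post-flood paddy application: compounds are introduced into water 3 cm deep over the soil, reaching plants at the 2-leaf stage. The water level is maintained, and after 13–15 days under greenhouse conditions, response is judged by eye relative to controls, where 100 means complete control.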
# [9] = test system: ducksalad (Heteranthera limosa); assay: Test B flooded paddy test; conditions: for Plant response rating, Flood, Ducksalad: 250 g ai/ha, flooded paddy test, visual rating on 0 to 100 scale (0 no effect, 100 complete control) after 13 to 15 days; for Plant response rating, Ducksalad: Flood (flooded paddy test), 13 to 15 days; for Ducksalad plant response rating: Flood, 31 g ai/ha, scale 0 to 100 (0 no effect, 100 complete control)
# Outline: as §2
# rice (Oryza sativa) = assay: Test B flooded paddy test; conditions: for Plant response rating, Flood, Rice: 250 g ai/ha, flooded paddy test, visual rating on 0 to 100 scale (0 no effect, 100 complete control) after 13 to 15 days; for Plant response rating, Rice: Flood (flooded paddy test), 13 to 15 days; for Rice plant response rating: Flood, 31 g ai/ha, scale 0 to 100 (0 no effect, 100 complete control)
# Outline: as §2
# [10] = test system: umbrella sedge (Cyperus difformis); assay: Test B flooded paddy test; conditions: for Plant response rating, Flood, Sedge, Umbrella: 250 g ai/ha, flooded paddy test, visual rating on 0 to 100 scale (0 no effect, 100 complete control) after 13 to 15 days; for Plant response rating, Sedge, Umbrella: Flood (flooded paddy test), 13 to 15 days; for Sedge, Umbrella plant response rating: Flood, 31 g ai/ha, scale 0 to 100 (0 no effect, 100 complete control)
# Outline: as §2
# [11] = Postemergence, 125 g ai/ha, 0 to 100 scale where 0 is no effect and 100 is complete control
# [12] = Postemergence, 500 g ai/ha, 0 to 100 scale, 0 = no effect, 100 = complete control, approx. ten days
# [13] = Preemergence, 125 g ai/ha, 0 to 100 scale, 0 = no effect, 100 = complete control
# [14] = Preemergence, 500 g ai/ha, visual injury, 0 to 100 scale (0 no effect, 100 complete control), approx. ten days
# [15] = 62 g ai/ha, scale of 0 to 100 where 0 is no effect and 100 is complete control
# [16] = 125 g ai/ha, scale 0 to 100, 0 is no effect, 100 is complete control
# [17] = Postemergence, 500 g ai/ha, visual injury, 0 to 100 scale (0 no effect, 100 complete control), approx. ten days
# [18] = Preemergence, 500 g ai/ha, 0 to 100 scale, 0 = no effect, 100 = complete control
structure (smiles),measurement,setting,value
CCCc1ncc(C(=O)C2=C(O)CCCC2=O)c(=O)n1Cc1cccc(OC)c1 [Compound 104],"Plant response rating, Barnyardgrass",[1]; [11],10
same,"Plant response rating, Barnyardgrass",[1]; [12],40
same,"Plant response rating, Barnyardgrass",[1]; [13],0
same,"Plant response rating, Barnyardgrass",[1]; [14],0
same,"Plant response rating, Corn",corn (Zea mays); [11],0
same,"Plant response rating, Corn",corn (Zea mays); [12],0
same,"Plant response rating, Corn",corn (Zea mays); [13],0
same,"Plant response rating, Corn",corn (Zea mays); [14],0
same,"Plant response rating, Foxtail, Giant",[2]; [11],0
same,"Plant response rating, Foxtail, Giant",[2]; [12],0
same,"Plant response rating, Foxtail, Giant",[2]; [13],0
same,"Plant response rating, Foxtail, Giant",[2]; [14],0
same,"Plant response rating, Crabgrass, Large",[3]; [11],0
same,"Plant response rating, Crabgrass, Large",[3]; [12],0
same,"Plant response rating, Crabgrass, Large",[3]; [13],0
same,"Plant response rating, Crabgrass, Large",[3]; [14],0
same,"Plant response rating, Morningglory",[4]; [11],70
same,"Plant response rating, Morningglory",[4]; [12],100
same,"Plant response rating, Morningglory",[4]; [13],0
same,"Plant response rating, Morningglory",[4]; [14],0
same,"Plant response rating, Pigweed",[5]; [11],100
same,"Plant response rating, Pigweed",[5]; [12],100
same,"Plant response rating, Pigweed",[5]; [13],80
same,"Plant response rating, Pigweed",[5]; [14],90
same,"Plant response rating, Velvetleaf",[6]; [11],70
same,"Plant response rating, Velvetleaf",[6]; [12],80
same,"Plant response rating, Velvetleaf",[6]; [13],0
same,"Plant response rating, Velvetleaf",[6]; [14],40
same,"Plant response rating, Wheat",[7]; [11],0
same,"Plant response rating, Wheat",[7]; [12],0
same,"Plant response rating, Wheat",[7]; [13],0
same,"Plant response rating, Wheat",[7]; [14],0
same,"Plant response rating, Flood, Barnyardgrass",[8],0
same,"Plant response rating, Barnyardgrass",[8]; [15],0
same,"Plant response rating, Barnyardgrass",[8]; [16],0
same,Barnyardgrass plant response rating,[8],0
same,"Plant response rating, Flood, Ducksalad",[9],0
same,"Plant response rating, Ducksalad",[9]; [15],0
same,"Plant response rating, Ducksalad",[9]; [16],0
same,Ducksalad plant response rating,[9],0
same,"Plant response rating, Flood, Rice",rice (Oryza sativa),0
same,"Plant response rating, Rice",rice (Oryza sativa); [15],0
same,"Plant response rating, Rice",rice (Oryza sativa); [16],0
same,Rice plant response rating,rice (Oryza sativa),0
same,"Plant response rating, Flood, Sedge, Umbrella",[10],0
same,"Plant response rating, Sedge, Umbrella",[10]; [15],0
same,"Plant response rating, Sedge, Umbrella",[10]; [16],0
same,"Sedge, Umbrella plant response rating",[10],0
Cc1ccc(Cl)cc1-n1c(-c2cc(F)cc(F)c2)ncc(C(=O)C2=C(O)CCCC2=O)c1=O [Compound 179],"Plant response rating, Barnyardgrass",[1]; [11],60
same,Barnyardgrass plant response rating,[1]; [17],90
same,"Plant response rating, Barnyardgrass",[1]; [13],0
same,"Plant response rating, Barnyardgrass",[1]; [18],70
same,"Plant response rating, Corn",corn (Zea mays); [11],10
same,Corn plant response rating,corn (Zea mays); [17],80
same,"Plant response rating, Corn",corn (Zea mays); [13],0
same,"Plant response rating, Corn",corn (Zea mays); [18],0
same,"Plant response rating, Foxtail, Giant",[2]; [11],40
same,"Foxtail, Giant plant response rating",[2]; [17],90
same,"Plant response rating, Foxtail, Giant",[2]; [13],10
same,"Plant response rating, Foxtail, Giant",[2]; [18],90
same,"Plant response rating, Crabgrass, Large",[3]; [11],60
same,"Crabgrass, Large plant response rating",[3]; [17],100
same,"Plant response rating, Crabgrass, Large",[3]; [13],20
same,"Plant response rating, Crabgrass, Large",[3]; [18],100
same,"Plant response rating, Morningglory",[4]; [11],60
same,Morningglory plant response rating,[4]; [17],100
same,"Plant response rating, Morningglory",[4]; [13],0
same,"Plant response rating, Morningglory",[4]; [18],40
same,"Plant response rating, Pigweed",[5]; [11],90
same,Pigweed plant response rating,[5]; [17],100
same,"Plant response rating, Pigweed",[5]; [13],50
same,"Plant response rating, Pigweed",[5]; [18],90
same,"Plant response rating, Velvetleaf",[6]; [11],100
same,Velvetleaf plant response rating,[6]; [17],100
same,"Plant response rating, Velvetleaf",[6]; [13],50
same,"Plant response rating, Velvetleaf",[6]; [18],100
same,"Plant response rating, Wheat",[7]; [11],40
same,Wheat plant response rating,[7]; [17],80
same,"Plant response rating, Wheat",[7]; [13],0
same,"Plant response rating, Wheat",[7]; [18],60
same,"Plant response rating, Flood, Barnyardgrass",[8],30
same,"Plant response rating, Barnyardgrass",[8]; [15],10
same,"Plant response rating, Barnyardgrass",[8]; [16],20
same,Barnyardgrass plant response rating,[8],0
same,"Plant response rating, Flood, Ducksalad",[9],100
same,"Plant response rating, Ducksalad",[9]; [15],90
same,"Plant response rating, Ducksalad",[9]; [16],95
same,Ducksalad plant response rating,[9],90
same,"Plant response rating, Flood, Rice",rice (Oryza sativa),65
same,"Plant response rating, Rice",rice (Oryza sativa); [15],0
same,"Plant response rating, Rice",rice (Oryza sativa); [16],25
same,Rice plant response rating,rice (Oryza sativa),0
same,"Plant response rating, Flood, Sedge, Umbrella",[10],95
same,"Plant response rating, Sedge, Umbrella",[10]; [15],80
same,"Plant response rating, Sedge, Umbrella",[10]; [16],85
same,"Sedge, Umbrella plant response rating",[10],40
